Values after ≈ are worked out from the molar mass of the structure shown. Where two headings read alike, the source gives them in different places.
What was measured:
[1] = test system: Beckman Coulter (BC) carbamazepine immunoassay; details: Beckman Coulter BC analyzers; cited from earlier work
[2] = test system: Abbott Diagnostics Axsym carbamazepine immunoassay; details: cited from earlier work
[3] = test system: antiserum raised to Immunogen II; experiment: Competitive ELISA, antibody characterisation; assay type: binding, sheep; details: for % Cross-reactivity: CR based on 100% for carbamazepine, IC50 carbamazepine/IC50 CR x 100; for IC50: antiserum raised to Immunogen II, detecting agent derived from Hapten-A, competitive assay format
Protocol: The antibody titre is evaluated by coating a microtitre plate (Thermo Fisher Scientific NUNC, 468667) with antibody (125 μl/well) in coating buffer (10 mM Tris pH 8.5) at 37° C. for 2 hours. The plate is then washed 4 times over 10 minutes with working strength TBST. 50 μl of sample/standard (Carbamazepine, Sigma C4024) is added to the appropriate wells in triplicate, followed by 75 μl of hapten-HRP conjugate and incubated at 25° C. for 1 hour. The plate is then washed and 125 μl of TMB (Randox, 4380-15) added to each well and left at room temperature for 20 mins in the dark. The reaction is stopped using 125 μl of 0.2M sulphuric acid. The absorbances are read at 450 nm with an ELISA microplate reader (BIO-TEK Instruments, Elx800) and the means calculated. Antibody sensitivity can then be determined. […] The immunogenic mixture (1 ml) was administered to adult sheep on a monthly basis to provide target-specific polyclonal antisera. IgG was extracted from the antisera via caprylic acid/ammonium sulphate precipitation of immunoglobulin. A microtitre plate (Thermo Fisher Scientific NUNC, 468667) was coated with antibody (125 μl/well) in coating buffer (10 mM Tris pH 8.5) at 37° C. for 2 hours. […] The plate was then washed and 125 μl of TMB (Randox, 4380-15) was added to each well and left at room temperature for 20 mins in the dark. The reaction was stopped using 125 μl of 0.2M sulphuric acid. The absorbances were read at 450 nm with an ELISA microplate reader (BIO-TEK Instruments, Elx800) and the means calculated. Antibody specificity and sensitivity were then determined. […] The results of this study are presented in Table 2, cross-reactivity being calculated according to the following formula: % CR=IC50. carbamazepine/IC50. CR×100 […] CR is the concentration of carbamazepine/metabolites/structurally-related molecules that causes 50% displacement of signal.

[4] = test system: Siemens ADVIA carbamazepine immunoassay; details: cited from earlier work
[5] = test system: Roche Diagnostics Online TDM carbamazepine immunoassay; details: at 6 μg/ml of carbamazepine; cited from earlier work
[6] = test system: monoclonal antibody of CBZ immunoassay; details: cited from earlier work
[7] = cited from earlier work
[8] = cited from earlier work; remark: listed apart in the source

Row | Structure (SMILES) | Cross-reactivity [1] [%] | % Cross-reactivity [3] | IC50 [3] | further results
1 | c1ccc2c(c1)Nc1ccccc1S2 [Phenothiazine] | 8.6 |  |  | 
2 | NC(=O)N1c2ccccc2C2OC2c2ccccc21 (centres unmarked) [CBZ-E, carbamazepine-10,11-epoxide] | 7.4 | 68.30% | 3.125 ng/mL (≈ 0.0124 µM) | Cross-reactivity [2]: ≦83.0%; Cross-reactivity [4]: 21.8%; Cross-reactivity [5]: 14.0%
3 | CN1C(=O)CN=C(c2ccccc2)c2cc(Cl)ccc21 [Diazepam] | 4.8 |  |  | 
4 | CNCCCN1c2ccccc2CCc2ccccc21 [Desipramine] |  |  |  | Cross-reactivity [2]: ≦540.0%
5 | NC(=O)N1c2ccccc2CC(O)c2ccccc21 (centres unmarked) [Hapten 10-OH-CBZ, 10,11-dihydro-10-hydroxycarbazepine] |  | 67.40% | 3.167 ng/mL (≈ 0.0125 µM) | Cross-reactivity [5]: 1.2%; Cross-reactivity [6]: negligible
6 | CNCCC=C1c2ccccc2CCc2ccccc21 [Nortryptyline] | 17.2 |  |  | Cross-reactivity [4]: 5.2%
7 | NC(=O)N1c2ccccc2C=Cc2ccccc21 [CBZ, carbamazepine] |  | 100.00% | 2.135 ng/mL (≈ 0.00904 µM) | toxic value ([7]; free carbamazepine): > 4.00 µg/mL; toxic value ([7]; total carbamazepine): greater than 12.00 μg/ml; half-life ([8]; in patients): 18 to 65 h
8 | CN(C)CCC=C1c2ccccc2CCc2ccccc21 [Amitriptyline, amitriptyline] | 18.6 | <<1.10% | >>200 ng/ml | Cross-reactivity [4]: 5.2%
9 | NC(=O)N1c2ccccc2C(O)C(O)c2ccccc21 (centres unmarked) [10,11-diOH-CBZ, 10,11-dihydro-10,11-dihydroxycarbamazepine] |  | 14.00% | 15.269 ng/mL (≈ 0.0565 µM) | major urinary excretory product ([8]; of CBZ, urine): 80%; Cross-reactivity [6]: negligible
10 | NC(=O)N1c2ccccc2CC(=O)c2ccccc21 [Oxcarbazepine, oxcarbazepine] |  | 299.00% | 0.714 ng/mL (≈ 0.00283 µM) | Cross-reactivity [5]: 1.0%; Cross-reactivity [6]: negligible
11 | CN(C)CCCN1c2ccccc2CCc2ccccc21 [Imipramine, imipramine] | 5.6 | <<1.10% | >>200 ng/ml | 

Reference: patent US8735556B2, “Sensitive and generic antibodies and multiple applications” (Randox Laboratories Limited, priority 2011, dated 2014)
